# In patent US12059399B2, “Methods for alleviating kidney disease and fibrosis of organ” (Getwing Biotechnology Medical Co., Ltd, priority 2021, dated 2024):
# Legend:
# [1] = system: mice subjected to UUO surgery; assay: Biochemical analysis of blood and urine samples of mice 7 days after unilateral ureter obstruction (UUO) surgery; format: in vivo, Male C57BL/6J mice
# Method: Male C57BL/6J mice (having a weight of about 25 g) purchased from the National Laboratory Animal Center (Taipei, Taiwan) were kept in an animal room under the following laboratory conditions: a temperature of about 24° C. and a 12-hour light/12-hour dark cycle. Diets and water were provided ad libitum for all of the experimental animals.
# (§1) The UUO surgery was performed in accordance with the Guidelines for Care and Use of Laboratory Animals. Specifically, during the UUO surgery, the respective mouse was anesthetized through intraperitoneal injection of pentobarbital (Manufacturer: Merck KGaA, Darmstadt, Germany; Catalogue no.: P3761) at a dose of about 60 mg per kg of body weight. The skin tissue and the subcutaneous muscle layer at the left side of the abdominal midline were incised, so that the left kidney was exposed and the left ureter was identified and dissociated. The left ureter was dissected out with scissors and ligated with silk surgical sutures (size: 4-0) at an upstream location approximately 1 cm from the renal hilum and at a downstream location approximately 1 cm from the renal hilum. After confirmation that no bleeding and no urine leakage occurred, the incised subcutaneous muscle layer and skin tissue were stitched.
# (§2) The male C57BL/6J mice described in section 2 of the “General Experimental Materials” were randomly divided into 5 groups, namely, a sham-operated group (SOG), a pathological control groups (PCG), and three experimental groups (i.e., experimental group 1 (EG1), experimental group 2 (EG2), and experimental group 3 (EG3)) (n=3 per group). After being raised in the animal room for one week, the mice in the PCG and the EG1 to EG3 were subjected to the UUO surgery as described in section 1 of the “General Experimental Procedures”. The mice in the SOG were subjected to a similar surgical procedure, except that the ureter of the mice in the SOG was not obstructed, i.e., the left ureter was not dissected out and ligated. After surgery, during the entire experimental process which lasted 7 days, all the mice were placed in iron cages.
# (§3) The mice of the EG1 to EG3 were respectively administered, via oral gavage, with the ferrous amino acid chelate described in section 1 of the “General Experimental Materials” at a dose of 5 mg/kg, 125 mg/kg and 250 mg/kg of body weight once daily (in the morning) for 7 days. At the end of Day 7, a blood sample and a urine sample, each in a volume of 0.2 mL, were obtained from each mouse in the EG1 to EG3. The mice of the SOG and the mice of the PCG received no treatment (i.e., 0 mg/kg of ferrous amino acid chelate), and at the end of Day 7, a blood sample and a urine sample, each in a volume of 0.2 mL, were obtained from each mouse.
# The blood sample of the respective mouse was subjected to measurements of alanine transaminase (ALT), aspartate transaminase (AST), blood urea nitrogen (BUN) and creatinine levels for evaluation of kidney health. The urine sample of the respective mouse was subjected to quantification of urea nitrogen and creatinine levels for evaluation of kidney health. For each of the aforesaid parameters, the differences between each group were analyzed according to the procedures as described in the section 2 of the “General Experimental Procedures”.
# [2] = system: left obstructed kidney of mice subjected to UUO surgery; assay: Histological analysis of renal tissues from the left obstructed kidney after UUO surgery (H&E, Masson's Trichrome, α-SMA and vimentin staining); format: in vivo, Male C57BL/6J mice
# Method: as §1, §2, §3
# The renal tissues were extracted from the left obstructed kidney of a selected mouse in each group. Fixation was conducted using 10% formalin, and dehydration was conducted using a series of graded alcohols (lower to higher concentrations) and xylene, followed by embedding in paraffin. A tissue section of […] was obtained and placed on a slide, followed by heating in an oven at […] overnight for melting the paraffin. Xylene was used to remove the melted paraffin, and rehydration was conducted with graded alcohols (higher to lower concentrations). Endogenous peroxidase was removed using 1% H2O2, followed by washing with a phosphate-buffered saline (PBS) buffer, so as to increase the permeability. After incubating the tissue section with fetal bovine serum (FBS) to prevent binding of some non-specific antigens, water was removed by suction.
# For staining of α-smooth muscle actin (SMA), a primary antibody against α-smooth muscle actin (SMA)(α-SMA) (Manufacturer: Abcam PLC; Catalogue no.: ab5694) with a dilution ratio of 1:400 was added to the tissue section at room temperature, and the reaction was allowed to proceed for 2 hours at room temperature. Thereafter, washing was conducted twice with PBS to remove unbound primary antibodies. A Polymer-HRP secondary antibody (Manufacturer: Golden Bridge International, Inc., USA) was added. One hour later after the reaction, washing was conducted twice with PBS. […]
# [3] = system: fibrous proteins (α-SMA, collagen I fibers, and vimentin) in kidney tissues; assay: Protein expression analysis (Western blot) of renal tissues from the left obstructed kidney after UUO surgery; format: in vivo, Male C57BL/6J mice; details: 7 days, vs PCG
# Method: as §1, §2, §3
# The renal tissues were extracted from the left obstructed kidney of a selected mouse in each group, and then lysed with NETN lysis buffer (20 mM Tris, 150 mM NaCl, 1 mM EDTA, and 0.5% NP-40) on ice. The resultant cell lysates were centrifuged, and the supernatants were collected to serve as total protein samples.
# Protein samples in equal amounts (i.e., 20 μg) as determined by Bradford assay were resolved in 8% or 10% sodium dodecyl sulfate-polyacrylamide (SDS-PAGE) gels, and then subjected to immunoblot analysis. To be specific, the separated proteins were transferred to Immobilon®-P polyvinylidene difluoride (PVDF) membranes (Manufacturer: Merck Millipore, NJ, USA). The blotted PVDF membranes thus obtained were blocked with Tris-buffered saline (TBS) and 0.1% (vol/vol) polysorbate 20 (also known as Tween 20) containing 5% non-fat dry milk for 1 hour at room temperature, followed by washing with TBST 3 times, each time for […], and then probing with the indicated primary antibodies overnight. The probed membranes were washed with a TBST buffer (a mixture of TBS and polysorbate 20) 3 times, each time for 5 minutes, and were then incubated with secondary antibodies, such as a horseradish peroxidase (HRP)-conjugated anti-mouse antibody or an HRP-conjugated anti-rabbit antibody for 60 minutes at room temperature. HRP was detected using ECL detection reagents (Merck Millipore, Darmstadt, Germany), and band intensity was determined by ImageQuant™ LAS-4000 luminescence image analyzer (GE Healthcare).
# Anti-glyceraldehyde 3-phosphate dehydrogenase (GAPDH) was used as a loading control.
# HK-2 cells [4] = assay: Cytotoxicity analysis (MTT) in HK-2 cells; format: cell-based, Human; details: EG1 to EG6: 50, 100, 250, 500, 750 and 1000 μg/mL; 24 hours; vs control group
# Method: (§4) Human kidney proximal tubular epithelial cell line HK-2 (from normal adult human renal cortex) used in the following experiments was obtained from, the Bioresource Collection and Research Center (BCRC) of the Food industry Research and Development Institute (FIRDI) (No. 331, Shih-Pin Rd., Hsinchu City 300, Taiwan).
# (§5) The HK-2 cells were incubated in 10-cm Petri dishes, each of which contained Dulbecco's modified Eagle's medium/Ham's Nutrient Mixture F-12 (DMEM/F12) (Manufacturer: Thermo Fisher Scientific, WA, USA; Catalogue no.: 12500062) supplemented with HyClone™ 1% (v/v) penicillin-steptomycin (Manufacturer: Cytiva; Catalogue no.: SC30010). […]
# First, the HK-2 cells described in section 3 of the General Experimental Materials were seeded at a concentration of 2×10^4 cells per well into wells of 6-well culture plates each containing DMEM/F-12 supplemented with 1% (v/v) penicillin-steptomycin, and then were divided into 7 groups, namely, a control group (CG), and six experimental groups (i.e., experimental groups 1 to 6 (EG1 to EG6)), followed by cultivation in an incubator with culture conditions set at 37° C. and 5% CO2 for 24 hours. […] Subsequently, the medium in each group was collected and subjected to light absorbance measurement at a wavelength of 570 nm (OD570) using a spectrophotometer. […]
# HK-2 cells [5] = assay: Migration of HK-2 cells into the cell-free wound area, induced by TGF-β1 (EMT); format: cell-based, Human; details: 100 μg/mL with 50 ng/mL TGF-β1; 24 hours; vs TGF-β1 alone (comparative group 1)
# Method: as §4
# as §5, with “SC30010). Subsequently, cultivation was conducted in an incubator with culture conditions set at 37° C. and 5% CO2. Medium change was performed every 2 days.” for “SC30010).”
# First, the HK-2 cells described in section 3 of the General Experimental Materials were seeded at a concentration of 4×10^4 cells per well into wells of 6-well culture plates each containing DMEM supplemented with 1% (v/v) penicillin-steptomycin, and then were divided into 4 groups, namely, a control group, a comparative group 1, a comparative group 2, and an experimental group, followed by cultivation until reaching 90% of confluence. […] Cell migration was assessed at the 0 hour and 24th hour using an inverted optical microscope.
# [6] = EG1 to EG3: 5, 125 and 250 mg/kg oral gavage once daily for 7 days, between SOG, PCG and EG1 to EG3
# [7] = 125 and 250 mg/kg (EG2, EG3) compared with 5 mg/kg (EG1)
# [8] = EG1 to EG3: 5, 125 and 250 mg/kg oral, 7 days, vs PCG
# [9] = EG1 and EG2: 5 and 125 mg/kg oral
substance,measurement,setting,value
ferrous glycinate chelate [ferrous amino acid chelate],blood urea nitrogen level,"[1]; EG1 to EG3: 5, 125 and 250 mg/kg oral gavage once daily for 7 days, UUO mice, vs PCG",significantly reduced compared to that in the PCG
same,urine urea nitrogen level,"[1]; EG1 to EG3: 5, 125 and 250 mg/kg oral gavage once daily for 7 days, among PCG, EG1, EG2 and EG3",no significant difference
same,ALT level in the blood sample,[1]; [6],no significant difference
same,AST level in the blood sample,[1]; [6],no significant difference
same,creatinine level in the blood sample,[1]; [6],no significant difference
same,urine creatinine level,"[1]; EG2 and EG3: 125 and 250 mg/kg oral gavage once daily for 7 days, UUO mice, vs PCG",significantly reduced compared to that in the PCG
same,degree of reduction of interstitial deposition of collagen fibers and muscle fibers,[2]; [7],greater in EG2 and EG3 compared with those in EG1
same,degree of reduction of tubular dilation,[2]; [7],greater in EG2 and EG3 compared with those in EG1
same,amount of actin fibers (α-SMA staining),[2]; [8],significantly reduced compared with those in the PCG
same,interstitial deposition of collagen fibers and muscle fibers (Masson's Trichrome staining),[2]; [8],significantly reduced compared with those in the PCG
same,number of cells undergoing fibrosis (vimentin staining),[2]; [8],significantly reduced compared with those in the PCG
same,tubular dilation (H & E staining),[2]; [8],significantly reduced compared with those in the PCG
same,expression of collagen I (Western blot),[3]; [9],no significant difference
same,expression of α-SMA (Western blot),[3]; [9],no significant difference
same,expression level of vimentin (Western blot),[3]; EG2 and EG3: 125 and 250 mg/kg oral,significant reduction in expression level
same,expression of collagen I (Western blot),[3]; EG3: 250 mg/kg oral,significantly reduced
same,expression of α-SMA (Western blot),[3]; EG3: 250 mg/kg oral,significantly reduced
same,expression level of vimentin (Western blot),"[3]; from EG1 to EG3: 5, 125, 250 mg/kg oral",gradually reduced from EG1 to EG3
same,"viability of the HK-2 cells (cell viability rate, MTT)",HK-2 cells [4],not significantly affected
same,migration of HK-2 cells into the cell-free wound area,HK-2 cells [5],decreased capability to migrate into the cell-free wound area
